Results taken from PMC10342804, “Neuroprotective and Disease-Modifying Effects of the Triazinetrione ACD856, a Positive Allosteric Modulator of Trk-Receptors for the Treatment of Cognitive Dysfunction in Alzheimer’s Disease” (International Journal of Molecular Sciences, 2023).

B1: BDNF: recombinant human brain-derived neurotrophic factor (PeproTech 450-02) (protein, UniProt P23560 19-247, looked up)
Neurotrophic factor BDNF …: APMKEANIRGQGGLAYPGVRTHGTLESVNGPKAGSRGLTSLADTFEHVIEELLDEDQKVRPNEENNKDADLYTSRVMLSSQVPLEPPLLFLLEEYKNYLDAANMSMRVRRHSDPARRGELSVCDSISEWVTAADKKTAVDMSGGTVTVLEKVPVSKGQLKQYFYETKCNPMGYTKEGCRGIDKRHWNSQCRTTQSYVRALTMDSKKRIGWRFIRIDTSCVCTLTIKRGR
B2: NT3: neurotrophin-3, binds to TrkC (protein, UniProt P20783 139-257, looked up)
Neurotrophin-3: YAEHKSHRGEYSVCDSESLWVTDKSSAIDIRGHQVTVLGEIKTGNSPVKQYFYETRCKEARPVKNGCRGIDDKHWNSQCKTSQTYVRALTSENNKLVGWRWIRIDTSCVCALSRKIGRT

Tests used:
[1] = parameters: method as in PMID 34440640; conditions: s.c., doses 0.3 mg/kg up to 3 mg/kg; cited from earlier work
C57BL/6J mice = test: Forced swim test; assay type: in vivo, mouse; conditions: ACD856 1 mg/kg s.c. five days; ketamine single dose 10 mg/kg seven days prior to swimming session
Procedure: Depression-like behavior was assessed in male C57BL/6J mice using a modified version of the FST, as described previously. This included a two-day protocol test, with pre-exposure to water 24 h prior to the test (day one of FST), which seems to be a more accurate and sensitive technique in detecting depression-like behavior in mice than the standard method of a single exposure (one day test). Animals were individually placed in a vertical glass cylinder (50 cm high, 20 cm in diameter, CMA) filled with tap water up to 35 cm (25 ± 0.5 °C). Two swimming sessions were conducted: a 10 min pre-test (day one) followed 24 h later (day two) by a 6 min test session. The total duration of immobility, as well as latency to the first immobility, were recorded during the 6 min test. After each swimming session, the mice were gently removed and placed in a home cage together with dry napkins. Immobility was defined as floating passively in an upright position in water with only small movements necessary to keep the head above the water’s surface. The floating time was considered an index of depression-like behavior. The glass cylinder was cleaned thoroughly between each animal.

[2] = tested on: ERK1/2 and Trk-receptors phosphorylation; test: Western blot of pERK1/2 and phospho-Trk in cortical neurons stimulated with growth factors; assay type: cell-based, mouse; conditions: 10 ng/mL factor, 20 min
Procedure: (§1) Figure 2 Increased activation of TrkB and downstream signaling through ERKK1/2 MAPK phosphorylation by BDNF and ACD856. Levels of phosphorylated TrkB receptors were determined by ELISA in SH-SY5Y cells overexpressing the human TrkB receptor (a). Effect of 0 (open bars), 10 (light grey bars), or 30 ng BDNF/mL (dark grey bars) and time course on BDNF-induced TrkB tyrosine phosphorylation are depicted as the mean of one experiment performed in quadruplicates +/− SEM * p < 0.05. SH-SY5Y-TrkB cells were incubated with 30 ng BDNF/mL for 10 min in the absence (DMSO) or presence of increasing concentrations of ACD856 (b). […] Data shown are the mean value +/− SEM from three independent experiments where each experiment was performed using at least 5 technical repeats. The effect of different neurotrophic factors on the phosphorylation of ERK1/2 and Trk-receptors was investigated (c). Cortical neurons were stimulated with 10 ng/mL of the indicated factors, and the levels of pERK1/2 (upper panel), phospho-Trk (tyrosine 674/675) (mid panel), and beta-actin as a loading control (lower panel) were analyzed by Western blot. Primary cortical neurons were incubated with 300 nM ACD856 for the indicated time periods in the absence of exogenous BDNF (d). The levels of phosphorylated ERK1/2 were determined by immunocytochemistry, and the total count per well of pERK1/2-positive neurites was determined. Fluorescence image at ×10 magnification showing phospho-ERK1/2 detected with immunocytochemistry in cortical neurons (e). * p < 0.05, ** p < 0.01 compared to control group at one-way ANOVA with Dunnett’s multiple comparisons test. Data shown are the mean value of all replicates +/− SEM from three different experiments.
Phosphorylated ERK 1/2 (pERK1/2) levels were evaluated in mouse primary neurons between DIV10–15. Cells were seeded at (60 × 10^4 cells) in 6-well plates coated with poly-D-Lysine. The activation of the Trk signaling pathway was induced with 10 ng/mL ligand for 20 min. Cells were thereafter immediately lysed on ice, sonicated, and denatured at 95 °C for 10 min on a heating block. Proteins were separated on a Novex Bis-Tris 4–12% gel and transferred to a PVDF membrane using an iBlot instrument (Invitrogen). The membrane was blocked using 5% BSA in TBS-T followed by incubation with anti-phospho-p44/42 MAPK (ERK1/2) rabbit monoclonal antibody (Cell Signaling CS-4370) (dilution 1:1000) in TBS-T with 0.1% BSA for at least 60 min. […] After washing, a Western blot detection reagent (Forte, Millipore) was added, and immunoreactive proteins were detected by luminescence using C-DiGit Blot Scanner and quantified with Image Studio™ Software (version 5.2). […]

primary cortical neurons [3] = test: Resazurin assay, energy-deprived primary cortical neurons; assay type: cell-based, mouse; conditions: 10 ng/mL, no glucose or pyruvate, vs untreated cells
Procedure: (§2) Metabolic activity was determined by measuring reduction in resazurin (a). […] Data shown are the means of all replicates +/− SEM from at least three different primary cultures. * p-value < 0.05, ** p-value < 0.01, *** p-value < 0.001, **** p-value < 0.0001 compared to control group at one-way ANOVA with Dunnett’s multiple comparisons test.
Cells were seeded at […] in 96-well plates and treated at DIV4–5 in Neurobasal-A media with 2% B27 and 2 mM glutamine (no glucose or pyruvate was present). Two hours after treatment, a 10% volume of resazurin ready-to-use solution was added to the cell culture media, and the plates were returned to the incubator for a further four hours. Resazurin reduction is directly proportional to metabolic function and was evaluated fluorometrically at 540 nm excitation and 580 nm emission wavelengths using a SpectraMax iD5 plate reader. Results were presented as a percentage change compared to the control group.

primary cortical neurons [4] = test: Mitochondrial ToxGlo assay (ATP levels, cell membrane integrity), energy-deprived primary neurons; assay type: cell-based, mouse; conditions: for cell membrane integrity: glucose and pyruvate withdrawal; for ATP levels: neurotrophins, 6 h, no glucose or pyruvate
Procedure: as §2
Mitochondrial ToxGlo assay was used to evaluate the cell membrane integrity and the ATP levels of PCN cells. At DIV4–5, cells seeded at […] in 96-well plates were treated for six and three hours with increasing doses of neurotrophins and ACD856, respectively, in Neurobasal-A media containing 2% B27 and 2 mM glutamine. No glucose or pyruvate was present in the cell media to prevent non-mitochondrial ATP production from glycolysis. Then, bis-AAF-R110, a fluorogenic substrate that is exclusively cleaved by proteases released from membrane-compromised cells, was added, and the plate was incubated at 37 °C for 30 min. Fluorescence was measured at 485 nm (Ex)/530 nm (Em) using a SpectraMax iD5 plate reader. Next, the ATP detection reagent was added, and luminescence was measured after 5 min incubation to assess ATP levels in lysed cells.

human TrkB receptor = target: T1, human TrkB receptor (Homo sapiens, UniProt Q16620); test: Phospho-TrkB ELISA in SH-SY5Y cells overexpressing TrkB; assay type: cell-based; conditions: 10 or 30 ng BDNF/mL, time course
T1 construct: host or cells: SH-SY5Y (human neuroblastoma) stably expressing TrkB
Procedure: as §1, with “The effect of different neurotrophic factors on the phosphorylation of ERK1/2 and Trk-receptors was investigated (c).” left out, “Primary cortical neurons were incubated with 300 nM ACD856 for the indicated time periods in the absence of exogenous BDNF (d).” left out, “Data shown are the mean value of all replicates +/− SEM from three different experiments.” left out

| Molecule | phosphorylation of ERK1/2 [2] | phosphorylation of Trk-receptors (pY674/675) [2] | metabolic activity (reduction of resazurin) (primary cortical neurons [3]) | cell membrane integrity (primary cortical neurons [4]) | ATP levels (primary cortical neurons [4]) | further results |
| --- | --- | --- | --- | --- | --- | --- |
| Cc1cc(-n2c(=O)[nH]c(=O)n(C)c2=O)ccc1Oc1ccc(S(=O)(=O)C(F)(F)F)cc1 [ACD855] |  |  |  |  |  | pro-cognitive effects in cognition models [1]: potent pro-cognitive effects |
| CNC1(c2ccccc2Cl)CCCCC1=O (stereo not shown) [Ketamine, ketamine] |  |  |  |  |  | prolonged effect on immobility time in forced swim test (C57BL/6J mice): prolonged antidepressive-like effects |
| BDNF: recombinant human brain-derived neurotrophic factor (PeproTech 450-02) | the most effective growth factors with respect to inducing phosphorylation of ERK1/2 | the only growth factors that induced phosphorylation of Trk-receptors | significantly higher fluorescence | improved cell membrane integrity | able to increase ATP levels |  |
| NGF: recombinant human nerve growth factor (PeproTech 450-01) |  |  | significantly higher fluorescence | improved cell membrane integrity | able to increase ATP levels |  |
| B1 |  |  |  |  |  | BDNF-induced TrkB tyrosine phosphorylation (human TrkB receptor): in a dose- and time-dependent manner, increase TrkB phosphorylation |
| B2 | the most effective growth factors with respect to inducing phosphorylation of ERK1/2 | the only growth factors that induced phosphorylation of Trk-receptors |  |  |  |  |
